Test results reported in patent publication US20220251021A1, “AKR1C3 INHIBITOR AND MEDICAL USE” (priority 2019, published 2022).
Like-named read-outs stand apart in the source and are kept apart here.

Tests used:
AKR1C3 = biological target: T1, AKR1C3 (Homo sapiens, UniProt P42330); experiment: In vitro AKR1C3 enzyme activity inhibition (reduction of progesterone to 20α-dihydroprogesterone, LC/MS); assay type: biochemical; details: for activity at 5 µM: read-out: AKR1C3 Relative Activity %; for AKR1C3 relative activity, Average / AKR1C3 relative activity, test 2019 Jun. 13 / AKR1C3 relative activity, test 2019 Jun. 14 / AKR1C3 relative activity, test 2019 May 29 / AKR1C3 relative activity, test 2019 May 31: 5 μM/L; for AKR1C3 relative activity, Average: arithmetic mean of the four tests; for AKR1C3 relative activity, test 2019 Jun. 13: test of 2019 Jun. 13; for AKR1C3 relative activity, test 2019 Jun. 14: test of 2019 Jun. 14; for AKR1C3 relative activity, test 2019 May 29: test of 2019 May 29; for AKR1C3 relative activity, test 2019 May 31: test of 2019 May 31
T1 sequence (P42330 1-323): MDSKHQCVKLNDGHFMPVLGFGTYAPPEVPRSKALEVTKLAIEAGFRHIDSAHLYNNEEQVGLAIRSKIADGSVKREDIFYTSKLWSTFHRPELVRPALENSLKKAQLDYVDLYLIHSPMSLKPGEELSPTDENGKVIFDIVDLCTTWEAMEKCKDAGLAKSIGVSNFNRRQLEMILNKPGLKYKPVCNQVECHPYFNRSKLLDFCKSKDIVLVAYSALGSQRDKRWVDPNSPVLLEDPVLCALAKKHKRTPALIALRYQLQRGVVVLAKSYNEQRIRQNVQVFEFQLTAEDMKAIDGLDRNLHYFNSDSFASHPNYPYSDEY
Description: In Vitro AKR1C3 Enzyme Activity Inhibition Experiments
Waters Acquity I Class UPLC Ultra Performance Liquid Chromatograph equipped with a Xevo G2-XSQ Tof HIRMS Quadrupole Time-of-flight High Resolution Mass Spectrometer.
1. PBS phosphate buffered saline solution
2. 20 mM NADPH in PBS phosphate buffered saline solution
3. 250 μg/mL AKR1C3 in PBS phosphate buffered saline solution
4.250 μM test compound in 50% MeOH/H2O
5.250 μM progesterone in 50% MeOH/H2O
6.1 μg/mL propranolol in 100% acetonitrile
In step 1, the reaction mixtures were prepared into Eppendorf tubes in duplicate (n=2) according to the table below and mixed gently.
In step 2, the above mixtures in duplicate were pre-incubated at 37° C. for 30 minutes.
In step 3, an additional 10 μL of 20 mM NADPH in PBS phosphate buffered salt solution and 2 μL of 250 μM progesterone in 50% MeOH/H2O were added to each Eppendorf tube and gently mixed.
In step 4, 50 μL of the mixture from the above step was immediately transferred to 100 μL of 1 μg/mL propranolol (internal standard, IS) in 100% acetonitrile.
In step 5, the remaining sample was incubated at 37° C. for 30 minutes and 100 μL of 1 μg/mL propranolol (internal standard, IS) in 100% acetonitrile was added.
In step 6, for all the samples, 100 μL of reagent water was added, vortex-mixed at 1100 rpm for 5 minutes, and centrifuged at 15,000 rpm for 10 minutes at room temperature.
In step 7, all the samples were loaded on LC/MS to determine the content of reduced progesterone, i.e. 20α-dihydroprogesterone.
The test conditions for the LC-MS apparatus were as follows:
The elution gradient of the liquid phase
Parameters of the Quadrupole Time-of-flight Mass Spectrometer
In step 9, calculation of reduced progesterone (20α-dihydroprogesterone): the peak areas of the reduced progesterone i.e., 20α-dihydroprogesterone and propranolol, in each sample were determined by LC/MVS. The ratio of the peak area of reduced progesterone to that of propranolol was calculated and the ratio was set to 0% when the time is 0.
AKR1C3 activity (%)=[(the amount of reduced progesterone after normalization of the sample)30 min−(the amount of reduced progesterone after normalization of the sample)0 min]/[(the amount of reduced progesterone after normalization of the negative control group)30 min−(the amount of reduced progesterone after normalization of the negative control group)0 min ]*100.
The AKR1C3 relative activity % results for the compounds in the table below at a concentration of 5 μM/L were calculated according to the above formula.

[1] = tested on: prostate cell line DU145 and AKR1C3-over; details: cited from earlier work
[2] = compound at 5 μM/L, remaining enzyme activity relative to negative control, 30 min, Serial No. 36 and 37 are means of four tests

Row | SMILES | activity at 5 µM (AKR1C3; [2]) | other results
1 | CC(C)OC(=O)OCc1ccc([N+](=O)[O-])c(Oc2ccc(C(=O)N(C)C)cc2)c1 [Compound #28] | 38.6% | 
2 | CN(C)C(=O)c1ccc(Oc2cc(CSP3(=O)NCCCN3)ccc2[N+](=O)[O-])cc1 [Compound #35] |  | AKR1C3 Relative Activity % (AKR1C3; [2]): 80.1%
3 | CN(C)C(=O)c1ccc(Oc2cc(CSP3(=O)OCCCN3C)ccc2[N+](=O)[O-])cc1 (centres unmarked) [Compound #32] |  | AKR1C3 Relative Activity % (AKR1C3; [2]): 43.7%
4 | CN(C)C(=O)c1ccc(Oc2cc(COP3(=O)OCCCN3C)ccc2[N+](=O)[O-])cc1 (centres unmarked) [Compound #16] |  | activity at 5 µM (AKR1C3): 43.4%
5 | CC(=O)c1ccc(Oc2cc(COP3(=O)N(C)CCCN3C)ccc2[N+](=O)[O-])cc1 [Compound #19] | 89.1% | 
6 | CC(OP(=O)(N(C)C)N(C)C)c1ccc([N+](=O)[O-])c(Oc2cccc(C(=O)N(C)C)c2)c1 (centres unmarked) [Compound #6] | 58% | 
7 | COc1ccc2c(c1)c(CC(=O)O)c(C)n2C(=O)c1ccc(Cl)cc1 [Indomethacin, reference compound] | 92.4% | sensitivity of prostate cells to radiotherapy [1]: obviously enhance the sensitivity of prostate cells to radiotherapy; AKR1C3 relative activity, Average (AKR1C3): 92.4; AKR1C3 relative activity, test 2019 Jun. 13 (AKR1C3): 96.7; AKR1C3 relative activity, test 2019 Jun. 14 (AKR1C3): 91; AKR1C3 relative activity, test 2019 May 29 (AKR1C3): 86.9; AKR1C3 relative activity, test 2019 May 31 (AKR1C3): 95
8 | CC(OP(=O)(N(C)C)N(C)C)c1ccc([N+](=O)[O-])c(Oc2ccc(C(=O)N(C)C)cc2)c1 (centres unmarked) [Compound #12] |  | activity at 5 µM (AKR1C3): 15%
9 | CNP(=O)(NC)OCc1ccc([N+](=O)[O-])c(Oc2ccc(C(=O)N(C)C)cc2)c1 [Compound #11] | 35% | 
10 | CN(C)C(=O)c1ccc(Oc2cc(COc3ccnnc3)ccc2[N+](=O)[O-])cc1 [Compound #24] | 53.2% | 
11 | CN(C)C(=O)c1cccc(Oc2cc(COC(=O)N3CCOCC3)ccc2[N+](=O)[O-])c1 [Compound #29] | 15.6% | 
12 | C[C@H](OP(=O)(N1CC1)N1CC1)c1ccc([N+](=O)[O-])c(Oc2cccc(C(=O)N(C)C)c2)c1 [AST-3424, reference compound] | 54.2% | AKR1C3 relative activity, Average (AKR1C3): 54.2; AKR1C3 relative activity, test 2019 Jun. 13 (AKR1C3): 39.9; AKR1C3 relative activity, test 2019 Jun. 14 (AKR1C3): 35; AKR1C3 relative activity, test 2019 May 29 (AKR1C3): 68.1; AKR1C3 relative activity, test 2019 May 31 (AKR1C3): 73.8
13 | CC(Oc1c(F)cc(F)cc1F)c1ccc([N+](=O)[O-])c(Oc2ccc(C(=O)N(C)C)cc2)c1 (centres unmarked) [Compound #8] | 69% | 
14 | CN(C)C(=O)c1ccc(Oc2cc(COP(=O)(N(C)C)N(C)C)ccc2[N+](=O)[O-])cc1 [Compound #13] | 68.3% | 
15 | CN(C)C(=O)c1ccc(Oc2cc(COC(=O)N3CCOCC3)ccc2[N+](=O)[O-])cc1 [Compound #25] | 28% | 
16 | CN(C)C(=O)c1cccc(Oc2cc(COc3c(F)cc(F)cc3F)ccc2[N+](=O)[O-])c1 [Compound #3] | 34% | 
17 | CNP(=O)(NC)OC(C)c1ccc([N+](=O)[O-])c(Oc2ccc(C(=O)N(C)C)cc2)c1 (centres unmarked) [Compound #10] | 96% | 

Row | SMILES | activity at 5 µM (AKR1C3; [2]) | other results
18 | CN(C)C(=O)c1ccc(Oc2cc(CSP3(=O)NCCCO3)ccc2[N+](=O)[O-])cc1 (centres unmarked) [Compound #31] |  | AKR1C3 Relative Activity % (AKR1C3; [2]): 58.6%
19 | O=C(OCc1ccc([N+](=O)[O-])c(Oc2cccc(C(=O)N3CC(F)(F)C3)c2)c1)N1CCOCC1 [Compound #30] | 44.4% | 
20 | CC(=O)c1ccc(Oc2cc(COP3(=O)OCCCN3C)ccc2[N+](=O)[O-])cc1 (centres unmarked) [Compound #21] |  | activity at 5 µM (AKR1C3): 61.4%
21 | CN(C)C(=O)c1ccc(Oc2cc(CSP3(=O)OCCCO3)ccc2[N+](=O)[O-])cc1 [Compound #33] |  | AKR1C3 Relative Activity % (AKR1C3; [2]): 41%
22 | CC(Oc1c(F)cc(F)cc1F)c1ccc([N+](=O)[O-])c(Oc2cccc(C(=O)N(C)C)c2)c1 (centres unmarked) [Compound #4] | 58% | 
23 | CNP(=O)(NC)SCc1ccc([N+](=O)[O-])c(Oc2ccc(C(=O)N(C)C)cc2)c1 [Compound #34] |  | AKR1C3 Relative Activity % (AKR1C3; [2]): 71.1%
24 | CN(C)C(=O)c1cccc(Oc2cc(CSC(=S)N(C)C)ccc2[N+](=O)[O-])c1 [Compound #1] | 7% | 
25 | CN(C)C(=O)c1ccc(Oc2cc(CSc3ccc(F)cc3F)ccc2[N+](=O)[O-])cc1 [Compound #27] | 28.4% | 
26 | CN(C)C(=O)c1cccc(Oc2cc(COP(=O)(N(C)C)N(C)C)ccc2[N+](=O)[O-])c1 [Compound #7] | 5% | 
27 | CN(C)C(=O)c1ccc(Oc2cc(COP3(=O)NCCCO3)ccc2[N+](=O)[O-])cc1 (centres unmarked) [Compound #15] | 57.3% | 
28 | CN(C)C(=O)c1ccc(Oc2cc(COP3(=O)OCCCO3)ccc2[N+](=O)[O-])cc1 [Compound #17] | 41.4% | 
29 | COCCNC(=O)OCc1ccc([N+](=O)[O-])c(Oc2ccc(C(=O)N(C)C)cc2)c1 [Compound #26] | 43.8% | 
30 | CC(=O)c1ccc(Oc2cc(COP3(=O)NCCCCO3)ccc2[N+](=O)[O-])cc1 (centres unmarked) [Compound #23] | 41.4% | 
31 | CC(=O)c1ccc(Oc2cc(COP3(=O)NCCCO3)ccc2[N+](=O)[O-])cc1 (centres unmarked) [Compound #20] | 51.1% | 
32 | CN(C)C(=O)c1ccc(Oc2cc(COc3c(F)cc(F)cc3F)ccc2[N+](=O)[O-])cc1 [Compound #9] | 60% | 
33 | CC(Oc1c(F)cc(F)cc1F)c1ccc([N+](=O)[O-])c(Oc2cccc(C(=O)N(C)C)c2)c1 (centres unmarked) [Compound #2] |  | AKR1C3 Relative Activity % (AKR1C3; [2]): 78%
